Data published in patent publication US20250340563A1, “FUSED PYRIDAZINE DERIVATIVES AS NLRP3 INHIBITORS” (Takeda Pharmaceutical Company Limited, priority 2022, published 2025).

How the values were obtained:
NF-κB pathway = test: TNF-α assay in IFN-γ-differentiated, LPS-stimulated THP-1 cells (ELISA); format: cell-based; conditions: Homo sapiens, 50 ng/mL LPS, 3 hours
Experimental: Monocytic THP-1 cells (ATCC: TIB-202) are maintained in accordance with the provider's instructions in RPMI media (Life Technologies, Cat #A10491-01); RPMI is supplemented with 10% heat inactivated fetal bovine serum (Hyclone Cat #SH30396.03). The cells are differentiated into macrophages by the addition of 25 ng/mL IFN-γ for 24 hours at 37° C./5% CO2. Media is exchanged with fresh media with no FBS. The cells are plated at 40,000 cells per well in 384-well flat-bottom cell culture plates (Costar 3764) containing compounds (added in 1:1000) in a 1:3.16 serial dilution series in DMSO and are incubated for 30 minutes at 37° C./5% CO2. The NF-κB pathway is activated with the addition of 50 ng/mL LPS and the cells are incubated for 3 hours at 37° C./5% CO2. At the end of the incubation period, supernatant (40 μL) is removed, and […] are monitored using an ELISA (Human TNF-α ELISA, R&D systems, Cat #DY210) according to the manufacturer's instructions.
The IC50 values are calculated from a plot of percentage of inhibition versus the inhibitor concentration by a logistics curve fit according to: Y=[Bottom+(Top−Bottom)]/(1+10^[(Log IC50−X)·Hill Slope], where Y is the % inhibition at the inhibitor concentration, X, “Bottom” is the lowest inhibition value, i.e. 0%, “Top” is the maximum inhibition value, i.e. 100%, and the “Hill Slope” describes the slope of the sigmoidal curve between the “Bottom” and “Top” values. The curve fitting was conducted with internally developed software.

NLRP3 inflammasome = NLRP3 inflammasome (Homo sapiens, UniProt Q96P20); test: IL-1β assay in IFN-γ-differentiated, LPS-primed, ATP-activated THP-1 cells (ELISA); format: cell-based; conditions: 50 ng/mL LPS priming, 2.5 mM ATP activation, 2 hours
Summary of the method: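 THP-1 cells differentiated with 25 ng/mL IFN-γ for 24 h, then primed with 50 ng/mL LPS for 24 h in serum-free medium. After 30 min compound preincubation (1:3.16 dilution series), inflammasome activated with 2.5 mM ATP for 2 h at 37 °C. Supernatant IL-1β measured by ELISA; IC50 from logistic fit of % inhibition.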

Chain of NLRP3 inflammasome (Q96P20 whole entry): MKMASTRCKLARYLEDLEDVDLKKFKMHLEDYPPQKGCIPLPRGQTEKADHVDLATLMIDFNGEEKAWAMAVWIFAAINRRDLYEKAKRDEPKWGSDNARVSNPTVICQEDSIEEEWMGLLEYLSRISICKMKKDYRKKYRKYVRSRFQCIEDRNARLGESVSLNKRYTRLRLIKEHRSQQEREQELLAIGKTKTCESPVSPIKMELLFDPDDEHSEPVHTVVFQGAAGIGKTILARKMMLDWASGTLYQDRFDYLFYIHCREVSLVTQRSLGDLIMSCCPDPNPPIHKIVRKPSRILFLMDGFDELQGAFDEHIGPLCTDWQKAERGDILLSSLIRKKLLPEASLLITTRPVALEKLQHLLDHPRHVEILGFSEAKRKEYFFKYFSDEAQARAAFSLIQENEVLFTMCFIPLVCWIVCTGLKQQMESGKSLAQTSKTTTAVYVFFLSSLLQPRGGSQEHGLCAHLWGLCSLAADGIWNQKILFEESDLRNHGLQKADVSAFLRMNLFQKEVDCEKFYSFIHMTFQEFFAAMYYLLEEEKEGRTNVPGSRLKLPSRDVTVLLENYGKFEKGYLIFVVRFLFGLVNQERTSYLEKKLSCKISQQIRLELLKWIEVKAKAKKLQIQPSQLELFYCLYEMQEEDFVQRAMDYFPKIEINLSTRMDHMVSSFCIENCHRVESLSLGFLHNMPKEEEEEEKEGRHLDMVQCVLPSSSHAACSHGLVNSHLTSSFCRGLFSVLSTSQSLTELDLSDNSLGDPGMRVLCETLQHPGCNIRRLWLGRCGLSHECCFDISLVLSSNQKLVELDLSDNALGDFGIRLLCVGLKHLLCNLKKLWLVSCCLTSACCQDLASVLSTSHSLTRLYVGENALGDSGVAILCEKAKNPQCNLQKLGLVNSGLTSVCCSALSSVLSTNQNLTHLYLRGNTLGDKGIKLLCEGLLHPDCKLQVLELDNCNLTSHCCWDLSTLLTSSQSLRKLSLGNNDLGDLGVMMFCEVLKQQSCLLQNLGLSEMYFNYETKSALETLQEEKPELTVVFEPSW

| Compound | IC50 (NF-κB pathway) [nM] | IC50 (NLRP3 inflammasome) [nM] |
| --- | --- | --- |
| COc1ccc(-c2nnc(NC3CCCN(C)C3)c3ccccc23)cc1 (centres unmarked) [Example 123, 4-(4-methoxyphenyl)-N-(1-methylpiperidin-3-yl)phthalazin-1-amine] | > 30000 | 276 |
| COc1ccc(-c2nnc(N[C@H]3C[C@@](C)(O)C3)c3ccccc23)cc1 [Example 124, cis-3-((4-(4-methoxyphenyl)phthalazin-1-yl)amino)-1-methylcyclobutan-1-ol] | > 30000 | 1290 |
| OC12CCC(Nc3nnc(-c4ccc(Cl)cc4)c4ccccc34)(CC1)C2 [Example 127, 4-((4-(4-chlorophenyl)phthalazin-1-yl)amino)bicyclo[2.2.1]heptan-1-ol] | > 30000 | 228 |
| FCCN1CCCC(Nc2nnc(-c3ccc(Cl)cc3)c3ccccc23)C1 (centres unmarked) [Example 140, 4-(4-chlorophenyl)-N-(1-(2-fluoroethyl)piperidin-3-yl)phthalazin-1-amine] | > 30000 | 75 |
| Clc1ccc(-c2nnc(NC3CCCN(C4CC4)C3)c3ccccc23)cc1 (centres unmarked) [Example 144, 4-(4-chlorophenyl)-N-(1-cyclopropylpiperidin-3-yl)phthalazin-1-amine] | > 30000 | 43 |
| CN1CC2CC2(Nc2nnc(-c3ccc(Cl)cc3)c3ccccc23)C1 (centres unmarked) [Example 152, 4-(4-chlorophenyl)-N-(3-methyl-3-azabicyclo[3.1.0]hexan-1-yl)phthalazin-1-amine] | > 30000 | 490 |
| Clc1ccc(-c2nnc(Nc3ccccc3)c3ccccc23)cc1 [Example 153, 4-(4-chlorophenyl)-N-phenylphthalazin-1-amine] | > 30000 | 2260 |
| Clc1ccc(-c2nnc(NC3CCCN(Cc4ccccc4)C3)c3ccccc23)cc1 (centres unmarked) [Example 155, N-(1-benzylpiperidin-3-yl)-4-(4-chlorophenyl)phthalazin-1-amine] | 23400 | 66 |
| COc1ccc(-c2nnc(N[C@@H]3CCCN(C4(C)CC4)C3)c3cnccc23)cc1 [Example 168, (R)-1-(4-methoxyphenyl)-N-(1-(1-methylcyclopropyl)piperidin-3-yl)pyrido[3,4-d]pyridazin-4-amine] | > 30000 | 5 |
| COc1ccc(-c2nnc(N[C@@H]3CCCN(C4CC4)C3)c3cnccc23)cc1 [Example 169, (R)—N-(1-cyclopropylpiperidin-3-yl)-1-(4-methoxyphenyl)pyrido[3,4-d]pyridazin-4-amine] | > 30000 | 7 |
| CCN1CCCC(Nc2nnc(-c3ccc(OC)cc3)c3ccccc23)C1 (centres unmarked) [Example 171, N-(1-ethylpiperidin-3-yl)-4-(4-methoxyphenyl)phthalazin-1-amine] | > 30000 | 68 |
| COc1ccc(-c2nnc(N[C@@H]3C[C@@H](F)CN(C)C3)c3cnccc23)cc1 [Example 174, N-((3R,5R)-5-fluoro-1-methylpiperidin-3-yl)-1-(4-methoxyphenyl)pyrido[3,4-d]pyridazin-4-amine] | > 30000 | 159 |
| COc1ccc(-c2nnc(N[C@@H]3C[C@@H](F)CN(C)C3)c3ccccc23)c(F)c1 [Example 178, N-((3R,5R)-5-fluoro-1-methylpiperidin-3-yl)-4-(2-fluoro-4-methoxyphenyl)phthalazin-1-amine] | > 30000 | 81 |
| CN1C[C@H](F)C[C@@H](Nc2nnc(-c3ccc(Cl)cc3F)c3ccncc23)C1 [Example 184, 1-(4-chloro-2-fluorophenyl)-N-((3R,5R)-5-fluoro-1-methylpiperidin-3-yl)pyrido[3,4-d]pyridazin-4-amine] | > 30000 | 152 |
| Cc1ccc(-c2nnc(N[C@@H]3C[C@@H](F)CN(C)C3)c3c(C)nccc23)c(O)c1 [Example 186, 2-(4-(((3R,5R)-5-fluoro-1-methylpiperidin-3-yl)amino)-5-methylpyrido[3,4-d]pyridazin-1-yl)-5-methylphenol] | > 30000 | 5 |
| COc1ccc(-c2nnc(N[C@@H]3C[C@@H](F)CN(CC4CC4)C3)c3ccccc23)cc1 [Example 194, N-((3R,5R)-1-(cyclopropylmethyl)-5-fluoropiperidin-3-yl)-4-(4-methoxyphenyl)phthalazin-1-amine] | > 30000 | 35 |
| CCN1C[C@H](F)C[C@@H](Nc2nnc(-c3ccc(OC)cc3)c3ccncc23)C1 [Example 195, N-((3R,5R)-1-ethyl-5-fluoropiperidin-3-yl)-1-(4-methoxyphenyl)pyrido[3,4-d]pyridazin-4-amine] | > 30000 | 113 |
| CN1C[C@H](F)C[C@@H](Nc2nnc(-c3ccc(Cl)cc3O)c3c2CCOC3)C1 [Example 200, 5-chloro-2-(1-(((3R,5R)-5-fluoro-1-methylpiperidin-3-yl)amino)-7,8-dihydro-5H-pyrano[3,4-d]pyridazin-4-yl)phenol] | > 30000 | 3 |
| CN1C[C@H](F)C[C@@H](Nc2nnc(-c3ccc(F)cc3O)c3c2CCOC3)C1 [Example 203, 5-fluoro-2-(1-(((3R,5R)-5-fluoro-1-methylpiperidin-3-yl)amino)-7,8-dihydro-5H-pyrano[3,4-d]pyridazin-4-yl)phenol] | > 30000 | 32 |
| CN1C[C@H](F)C[C@@H](Nc2nnc(-c3ccc(OC(F)(F)F)cc3F)c3c2COCC3)C1 [Example 205, N-((3R,5R)-5-fluoro-1-methylpiperidin-3-yl)-1-(2-fluoro-4-(trifluoromethoxy)phenyl)-7,8-dihydro-5H-pyrano[3,4-d]pyridazin-4-amine] | > 30000 | 64 |

The remaining lines, values ahead:

| IC50 (NF-κB pathway) [nM] | IC50 (NLRP3 inflammasome) [nM] | Compound |
| --- | --- | --- |
| > 30000 | 2300 | O[C@H]1C[C@@H](Nc2nnc(-c3ccc(Cl)cc3)c3ccccc23)C1 [Example 122, cis-3-((4-(4-chlorophenyl)phthalazin-1-yl)amino)cyclobutan-1-ol] |
| > 30000 | 31 | CN1CCC[C@@H](Nc2nnc(-c3ccc(Cl)cc3)c3ccccc23)C1 [Example 139, (R)-4-(4-chlorophenyl)-N-(1-methylpiperidin-3-yl)phthalazin-1-amine] |
| > 30000 | 18 | CCN1CCCC(Nc2nnc(-c3ccc(Cl)cc3)c3ccccc23)C1 (centres unmarked) [Example 162, 4-(4-chlorophenyl)-N-(1-ethylpiperidin-3-yl)phthalazin-1-amine] |
| > 30000 | 37 | CN1C[C@H](F)C[C@@H](Nc2nnc(-c3ccc(Cl)cc3F)c3ccccc23)C1 [Example 176, 4-(4-chloro-2-fluorophenyl)-N-((3R,5R)-5-fluoro-1-methylpiperidin-3-yl)phthalazin-1-amine] |
| > 30000 | 53 | COc1ccc(-c2nnc(N[C@@H]3C[C@@H](F)CN(C)C3)c3ccccc23)cc1 [Example 177, N-((3R,5R)-5-fluoro-1-methylpiperidin-3-yl)-4-(4-methoxyphenyl)phthalazin-1-amine] |
| > 30000 | 311 | CN1C[C@@H](F)C[C@@H](Nc2nnc(-c3ccc(Cl)cc3)c3ccccc23)C1 [Example 185, 4-(4-chlorophenyl)-N-((3R,5S)-5-fluoro-1-methylpiperidin-3-yl)phthalazin-1-amine] |
| > 30000 | 110 | CN1C[C@H](F)C[C@@H](Nc2nnc(-c3ccc(Cl)cc3)c3ccncc23)C1 [Example 189, 1-(4-chlorophenyl)-N-((3R,5R)-5-fluoro-1-methylpiperidin-3-yl)pyrido[3,4-d]pyridazin-4-amine] |
| 7590 | 648 | F[C@H]1CNC[C@H](Nc2nnc(-c3ccc(Cl)cc3)c3ccccc23)C1 [Example 190, 4-(4-chlorophenyl)-N-((3R,5R)-5-fluoropiperidin-3-yl)phthalazin-1-amine] |
| > 30000 | 60 | CN1C[C@H](F)C[C@@H](Nc2nnc(-c3ccc(Cl)cc3)c3ccccc23)C1 [Example 192, 4-(4-chlorophenyl)-N-((3R,5R)-5-fluoro-1-methylpiperidin-3-yl)phthalazin-1-amine] |
| > 30000 | 22 | CCN1C[C@H](F)C[C@@H](Nc2nnc(-c3ccc(OC)cc3)c3ccccc23)C1 [Example 193, N-((3R,5R)-1-ethyl-5-fluoropiperidin-3-yl)-4-(4-methoxyphenyl)phthalazin-1-amine] |
| > 30000 | 12 | COc1ccc(-c2nnc(N[C@@H]3C[C@@H](F)CN(C(C)C)C3)c3ccccc23)cc1 [Example 196, N-((3R,5R)-5-fluoro-1-isopropylpiperidin-3-yl)-4-(4-methoxyphenyl)phthalazin-1-amine] |
